pIC50: −log10 of the molar value.
Target: T1, Recombinant full length human OGA enzyme (Homo sapiens, UniProt O60502)
T1 construct: Recombinant full length human OGA enzyme was purchased from Origene; purchased Origene
T1 sequence (O60502 1-916): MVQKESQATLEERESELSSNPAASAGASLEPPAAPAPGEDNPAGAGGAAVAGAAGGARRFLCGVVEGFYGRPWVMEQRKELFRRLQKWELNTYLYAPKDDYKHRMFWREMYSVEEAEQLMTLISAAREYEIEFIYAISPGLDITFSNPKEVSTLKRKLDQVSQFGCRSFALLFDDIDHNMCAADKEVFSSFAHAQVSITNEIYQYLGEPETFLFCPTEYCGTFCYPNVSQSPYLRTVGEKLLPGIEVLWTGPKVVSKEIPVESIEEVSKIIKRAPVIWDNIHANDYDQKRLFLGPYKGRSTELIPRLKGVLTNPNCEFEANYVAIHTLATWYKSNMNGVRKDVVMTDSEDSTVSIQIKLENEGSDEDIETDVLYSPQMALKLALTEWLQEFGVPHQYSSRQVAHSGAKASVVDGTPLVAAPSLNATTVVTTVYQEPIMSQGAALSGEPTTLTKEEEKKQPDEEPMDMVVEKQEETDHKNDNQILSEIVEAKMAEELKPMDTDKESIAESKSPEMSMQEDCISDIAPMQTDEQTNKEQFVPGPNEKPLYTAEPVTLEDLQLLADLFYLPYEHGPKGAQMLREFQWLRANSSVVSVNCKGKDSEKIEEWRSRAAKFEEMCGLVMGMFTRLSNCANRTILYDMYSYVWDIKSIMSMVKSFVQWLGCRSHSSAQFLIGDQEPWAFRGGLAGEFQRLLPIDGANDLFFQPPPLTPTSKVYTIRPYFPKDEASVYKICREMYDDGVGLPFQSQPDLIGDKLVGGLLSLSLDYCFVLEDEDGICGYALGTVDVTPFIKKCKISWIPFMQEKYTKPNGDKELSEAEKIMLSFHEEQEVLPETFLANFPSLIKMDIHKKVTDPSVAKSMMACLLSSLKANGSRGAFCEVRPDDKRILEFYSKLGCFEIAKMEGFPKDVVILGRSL
Experiment: OGA enzyme inhibition biochemical assay
Details: 1 nM OGA, 100 μM 4-MUGlcNAc (Km), pH 6.4, 90 minutes at room temperature, 10-point dose-response from 20 μM
How it was run: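 1 nM OGA with 100 μM 4-MUGlcNAc (Km) in McIlvaine buffer pH 6.4, 0.01% BSA, 90 min at room temperature; quenched with 3M glycine pH 10, fluorescence Ex 355/Em 460 nm. 10-point, 4-fold dilutions from 20 μM; 4-parameter variable-slope fit.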

SMILES	pIC50
CC(=O)Nc1nc(F)c(CN2C[C@H](Oc3nccc4nn(C)cc34)C[C@@H]2C)s1 [Example 136, N-(4-fluoro-5-(((2S,4R)-2-methyl-4-((2-methyl-2H-pyrazolo[4,3-c]pyridin-4-yl)oxy)pyrrolidin-1-yl)methyl)thiazol-2-yl)acetamide]	> 9.00
CC(=O)Nc1ncc(CN2C[C@H](Oc3ccc4occc4n3)C[C@@H]2C)s1 [Example 65, N-(5-(((2S,4R)-4-(furo[3,2-b]pyridin-5-yloxy)-2-methylpyrrolidin-1-yl)methyl)thiazol-2-yl)acetamide]	> 9.00
CC(=O)Nc1ncc(CN2C[C@H](Oc3cccn4ccnc34)C[C@@H]2C)s1 [Example 156, N-(5-(((2S,4R)-4-(imidazo[1,2-a]pyridin-8-yloxy)-2-methylpyrrolidin-1-yl)methyl)thiazol-2-yl)acetamide]	> 9.00
CC(=O)Nc1nc(F)c(CN2C[C@H](Oc3cnc4nc(C)oc4c3)C[C@@H]2C)s1 [Example 169, N-(4-Fluoro-5-(((2S,4R)-2-methyl-4-((2-methyloxazolo[4,5-b]pyridin-6-yl)oxy)pyrrolidin-1-yl)methyl)thiazol-2-yl)acetamide]	> 9.00
CC(=O)Nc1ncc(CN2C[C@H](Oc3ccnc4c3CCCC4)C[C@@H]2C)s1 [Example 33, N-(5-(((2S,4R)-2-methyl-4-((5,6,7,8-tetrahydroquinolin-4-yl)oxy)pyrrolidin-1-yl)methyl)thiazol-2-yl)acetamide]	7.80
CC(=O)Nc1nc(F)c(CN2C[C@H](Oc3cnc4nccn4c3)C[C@@H]2C)s1 [Example 164, N-(4-fluoro-5-(((2S,4R)-4-(imidazo[1,2-a]pyrimidin-6-yloxy)-2-methylpyrrolidin-1-yl)methyl)thiazol-2-yl)acetamide]	> 9.00
CCc1cc2c(O[C@@H]3C[C@H](C)N(Cc4cnc(NC(C)=O)s4)C3)nccc2o1 [Example 15, N-(5-(((2S,4R)-4-((2-ethylfuro[3,2-c]pyridin-4-yl)oxy)-2-methylpyrrolidin-1-yl)methyl)thiazol-2-yl)acetamide]	> 9.00
CC(=O)Nc1nc(F)c(CN2C[C@H](Oc3ccc4ncoc4c3)C[C@@H]2C)s1 [Example 76, N-(5-(((2S,4R)-4-(benzo[d]oxazol-6-yloxy)-2-methylpyrrolidin-1-yl)methyl)-4-fluorothiazol-2-yl)acetamide]	> 9.00
CC(=O)Nc1nc(F)c(CN2C[C@H](Oc3ncnc4cnccc34)C[C@@H]2C)s1 [Example 118, N-(4-fluoro-5-(((2S,4R)-2-methyl-4-(pyrido[3,4-d]pyrimidin-4-yloxy)pyrrolidin-1-yl)methyl)thiazol-2-yl)acetamide]	> 9.00
CC(=O)Nc1ncc(CN2C[C@H](Oc3ccc4cc(C(N)=O)ccc4n3)C[C@@H]2C)s1 [Example 2, 2-(((3R,5S)-1-((2-acetamidothiazol-5-yl)methyl)-5-methylpyrrolidin-3-yl)oxy)quinoline-6-carboxamide]	> 9.00
CC(=O)Nc1ncc(CN2C[C@H](Oc3cncc4nccn34)C[C@@H]2C)s1 [Example 99, N-(5-(((2S,4R)-4-(imidazo[1,2-a]pyrazin-5-yloxy)-2-methylpyrrolidin-1-yl)methyl)thiazol-2-yl)acetamide]	> 9.00
CC(=O)Nc1ncc(CN2C[C@H](Oc3ncnc4ccoc34)C[C@@H]2C)s1 [Example 71, N-(5-(((2S,4R)-4-(furo[3,2-d]pyrimidin-4-yloxy)-2-methylpyrrolidin-1-yl)methyl)thiazol-2-yl)acetamide]	> 9.00
CC(=O)Nc1nc(F)c(CN2C[C@H](Oc3ccnc4nn(C)cc34)C[C@@H]2C)s1 [Example 140, N-(4-fluoro-5-(((2S,4R)-2-methyl-4-((2-methyl-2H-pyrazolo[3,4-b]pyridin-4-yl)oxy)pyrrolidin-1-yl)methyl)thiazol-2-yl)acetamide]	> 9.00
CC(=O)Nc1nc(F)c(CN2C[C@H](Oc3ccn4nc(C)nc4c3)C[C@@H]2C)s1 [Example 173, N-(4-fluoro-5-(((2S,4R)-2-methyl-4-((2-methyl-[1,2,4]triazolo[1,5-a]pyridin-7-yl)oxy)pyrrolidin-1-yl)methyl)thiazol-2-yl)acetamide]	> 9.00
CC(=O)Nc1ncc(CN2C[C@H](Oc3cccc4nn(C)cc34)C[C@@H]2C)s1 [Example 83, N-(5-(((2S,4R)-2-methyl-4-((2-methyl-2H-indazol-4-yl)oxy)pyrrolidin-1-yl)methyl)thiazol-2-yl)acetamide]	8.96
CC(=O)Nc1ncc(CN2C[C@H](Oc3cc(C(N)=O)nc4ccccc34)C[C@@H]2C)s1 [Example 21, 4-(((3R,5S)-1-((2-acetamidothiazol-5-yl)methyl)-5-methylpyrrolidin-3-yl)oxy)quinoline-2-carboxamide]	8.72
CC(=O)Nc1nc(F)c(CN2C[C@H](Oc3cc4cn(C)nc4cn3)C[C@@H]2C)s1 [Example 89, N-(4-fluoro-5-(((2S,4R)-2-methyl-4-((2-methyl-2H-pyrazolo[3,4-c]pyridin-5-yl)oxy)pyrrolidin-1-yl)methyl)thiazol-2-yl)acetamide]	> 9.00
CC(=O)Nc1nc(F)c(CN2C[C@H](Oc3ccc4nn(C(F)F)cc4n3)C[C@@H]2C)s1 [Example 154, N-(5-(((2S,4R)-4-((2-(difluoromethyl)-2H-pyrazolo[4,3-b]pyridin-5-yl)oxy)-2-methylpyrrolidin-1-yl)methyl)-4-fluorothiazol-2-yl)acetamide]	> 9.00
CC(=O)Nc1ncc(CN2C[C@H](Oc3nccc4cc(F)ccc34)C[C@@H]2C)s1 [Example 27, N-(5-(((2S,4R)-4-((6-fluoroisoquinolin-1-yl)oxy)-2-methylpyrrolidin-1-yl)methyl)thiazol-2-yl)acetamide]	8.40
COc1cccn2nc(O[C@@H]3C[C@H](C)N(Cc4sc(NC(C)=O)nc4F)C3)nc12 [Example 148, N-(4-fluoro-5-(((2S,4R)-4-((8-methoxy-[1,2,4]triazolo[1,5-a]pyridin-2-yl)oxy)-2-methylpyrrolidin-1-yl)methyl)thiazol-2-yl)acetamide]	> 9.00
CC(=O)Nc1ncc(CN2C[C@H](Oc3ccnc4nc(C(F)(F)F)nn34)C[C@@H]2C)s1 [Example 34, N-(5-(((2S,4R)-2-methyl-4-((2-(trifluoromethyl)-[1,2,4]triazolo[1,5-a]pyrimidin-7-yl)oxy)pyrrolidin-1-yl)methyl)thiazol-2-yl)acetamide]	7.66
CC(=O)Nc1nc(F)c(CN2C[C@H](Oc3ccn4nncc4c3)C[C@@H]2C)s1 [Example 149, N-(5-(((2S,4R)-4-([1,2,3]triazolo[1,5-a]pyridin-5-yloxy)-2-methylpyrrolidin-1-yl)methyl)-4-fluorothiazol-2-yl)acetamide]	> 9.00
CC(=O)Nc1ncc(CN2C[C@H](Oc3cc4nc(C)cn4cn3)C[C@@H]2C)s1 [Example 40, N-(5-(((2S,4R)-2-methyl-4-((2-methylimidazo[1,2-c]pyrimidin-7-yl)oxy)pyrrolidin-1-yl)methyl)thiazol-2-yl)acetamide]	> 9.00
CC(=O)Nc1nc(F)c(CN2C[C@H](Oc3ccc4ncnn4c3)C[C@@H]2C)s1 [Example 172, N-(5-(((2S,4R)-4-([1,2,4]triazolo[1,5-a]pyridin-6-yloxy)-2-methylpyrrolidin-1-yl)methyl)-4-fluorothiazol-2-yl)acetamide]	> 9.00
CC(=O)Nc1ncc(CN2C[C@H](Oc3ccnc4ccsc34)C[C@@H]2C)s1 [Example 5, N-(5-(((2S,4R)-2-methyl-4-(thieno[3,2-b]pyridin-7-yloxy)pyrrolidin-1-yl)methyl)thiazol-2-yl)acetamide]	> 9.00
CC(=O)Nc1nc(F)c(CN2C[C@H](Oc3cnc4ccnn4c3)C[C@@H]2C)s1 [Example 170, N-(4-fluoro-5-(((2S,4R)-2-methyl-4-(pyrazolo[1,5-a]pyrimidin-6-yloxy)pyrrolidin-1-yl)methyl)thiazol-2-yl)acetamide]	> 9.00
CC(=O)Nc1ncc(CN2C[C@H](Oc3ccc4nn(C)cc4c3)C[C@@H]2C)s1 [Example 44, N-(5-(((2S,4R)-2-methyl-4-((2-methyl-2H-indazol-5-yl)oxy)pyrrolidin-1-yl)methyl)thiazol-2-yl)acetamide]	> 9.00
CC(=O)Nc1ncc(CN2C[C@H](Oc3nccc4oc(C)cc34)C[C@@H]2C)s1 [Example 16, N-(5-(((2S,4R)-2-methyl-4-((2-methylfuro[3,2-c]pyridin-4-yl)oxy)pyrrolidin-1-yl)methyl)thiazol-2-yl)acetamide]	> 9.00
